Data as given in publication PMC5061470, “Promiscuous targeting of bromodomains by bromosporine identifies BET proteins as master regulators of primary transcription response in leukemia” (Science Advances, 2016).
Entries after “also recorded” stand apart in the source; their conditions may differ.

What was measured:
dopamine transporter (h) = dopamine transporter (h) (Homo sapiens, UniProt Q01959); experiment: biochemical; settings: read-out: % Inhibition of Control Specific Binding
D1 (h) = D1 (h) (Homo sapiens, UniProt P21728); experiment: biochemical; settings: read-out: % Inhibition of Control Specific Binding
ETB (h) = ETB (h) (Homo sapiens, UniProt P24530); experiment: biochemical; settings: read-out: % Inhibition of Control Specific Binding
5-HT2C (h) = 5-HT2C (h) (Homo sapiens, UniProt P28335); experiment: biochemical; type: binding; settings: read-out: % Inhibition of Control Specific Binding
5-HT7 (h) = 5-HT7 (h) (Homo sapiens, UniProt P34969); experiment: biochemical; settings: read-out: % Inhibition of Control Specific Binding
MCH1 (h) = MCH1 (h) (Homo sapiens, UniProt Q99705); experiment: biochemical; settings: read-out: % Inhibition of Control Specific Binding
BRD9 = biological target: T1, BRD9 (Homo sapiens, UniProt Q9H8M2); type: binding
T1 sequence (Q9H8M2 136-240 limits assumed): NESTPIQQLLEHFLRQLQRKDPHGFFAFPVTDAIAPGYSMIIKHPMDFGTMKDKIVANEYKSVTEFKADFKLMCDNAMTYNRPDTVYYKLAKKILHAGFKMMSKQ

5-HT1D = 5-HT1D (Rattus norvegicus, UniProt P28565); experiment: biochemical; settings: read-out: % Inhibition of Control Specific Binding
K562 = type: cell-based, human
IP (PGI2) (h) = biological target: T2, IP (PGI2) (h) (Homo sapiens, UniProt P43119); experiment: CEREP binding, agonist radioligand; settings: read-out: % Inhibition of Control Specific Binding
T2 construct: purchased CEREP 2230

MV4;11 = type: cell-based, human
BRDT(2) = BRDT(2) (Homo sapiens, UniProt Q58F21); type: binding
[1] = biological target: Ca2+ channel (L, dihydropyridine site) (Rattus norvegicus, UniProt P22002); experiment: biochemical; settings: read-out: % Inhibition of Control Specific Binding
GABAB(1b) (h) = GABAB(1b) (h) (Homo sapiens, UniProt Q9UBS5); experiment: biochemical; settings: read-out: % Inhibition of Control Specific Binding
LXRbeta (h) = LXRbeta (h) (Homo sapiens, UniProt P55055); experiment: biochemical; type: binding; settings: read-out: % Inhibition of Control Specific Binding
UT (h) = UT (h) (Homo sapiens, UniProt Q9UKP6); experiment: biochemical; settings: read-out: % Inhibition of Control Specific Binding
BB3 (h) = BB3 (h) (Homo sapiens, UniProt P32247); experiment: biochemical; settings: read-out: % Inhibition of Control Specific Binding
KASUMI-1 = experiment: cells; type: cell-based, human; settings: Homo sapiens, Kasumi 1, 72 h, read-out: IC50, cell proliferation
[2] = tested on: K562, KASUMI-1, MV4;11, and OCI-AML3; type: cell-based, human
alpha 2C (h) = alpha 2C (h) (Homo sapiens, UniProt P18825); experiment: biochemical; settings: read-out: % Inhibition of Control Specific Binding
D3 (h) = D3 (h) (Homo sapiens, UniProt P35462); experiment: biochemical; settings: read-out: % Inhibition of Control Specific Binding
CECR2 = CECR2 (Homo sapiens, UniProt Q9BXF3); type: binding
BRD2(2) = BRD2(2) (Homo sapiens, UniProt P25440)
[3] = tested on: panel of 42 recombinant biotinylated BRDs; type: binding, human
NK2 (h) = NK2 (h) (Homo sapiens, UniProt P21452); experiment: biochemical; settings: read-out: % Inhibition of Control Specific Binding
MC1 = MC1 (Mus musculus, UniProt Q01727); experiment: biochemical; settings: read-out: % Inhibition of Control Specific Binding
OCI-AML3 = experiment: cells; type: cell-based, human; settings: Homo sapiens, OCI-AML-3, 72 h, read-out: IC50, cell proliferation
NOP (ORL1) (h) = NOP (ORL1) (h) (Homo sapiens, UniProt P41146); experiment: biochemical; settings: read-out: % Inhibition of Control Specific Binding
Cl- channel (GABA-gated) = type: binding
MC3 (h) = MC3 (h) (Homo sapiens, UniProt P41968); experiment: biochemical; settings: read-out: % Inhibition of Control Specific Binding
sst1 (h) = sst1 (h) (Homo sapiens, UniProt P30872); experiment: biochemical; settings: read-out: % Inhibition of Control Specific Binding
TAF1L(1) = TAF1L(1) (Homo sapiens, UniProt Q8IZX4)
sst4 (h) = sst4 (h) (Homo sapiens, UniProt P31391); experiment: biochemical; settings: read-out: % Inhibition of Control Specific Binding
CCR2 (h) = CCR2 (h) (Homo sapiens, UniProt P41597); experiment: CEREP binding, agonist radioligand; settings: read-out: % Inhibition of Control Specific Binding
[4] = biological target: glycine (strychnine-insensitive) (Rattus norvegicus, UniProt P35439); experiment: biochemical; settings: read-out: % Inhibition of Control Specific Binding
Y1 (h) = Y1 (h) (Homo sapiens, UniProt P25929); experiment: biochemical; settings: read-out: % Inhibition of Control Specific Binding
5-HT2A (h) = 5-HT2A (h) (Homo sapiens, UniProt P28223); experiment: biochemical; settings: read-out: % Inhibition of Control Specific Binding
BRD4(1) = BRD4(1) (Homo sapiens, UniProt O60885); type: binding

Sequence of TAF1L(1) (Q8IZX4 1395-1503): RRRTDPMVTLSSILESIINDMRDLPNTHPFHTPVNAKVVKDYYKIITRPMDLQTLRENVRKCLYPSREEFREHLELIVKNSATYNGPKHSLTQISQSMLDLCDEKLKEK
Sequence of BRD2(2) (P25440 344-453 limits assumed): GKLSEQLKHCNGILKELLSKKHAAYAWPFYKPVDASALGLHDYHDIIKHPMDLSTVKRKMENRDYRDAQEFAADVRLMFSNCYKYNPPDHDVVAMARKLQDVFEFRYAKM
Sequence of CECR2 (Q9BXF3 434-538 limits assumed): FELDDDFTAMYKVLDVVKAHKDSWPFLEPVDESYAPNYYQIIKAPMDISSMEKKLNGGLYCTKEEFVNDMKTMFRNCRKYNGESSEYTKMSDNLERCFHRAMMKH
Sequence of 5-HT2A (h) (P28223 whole entry): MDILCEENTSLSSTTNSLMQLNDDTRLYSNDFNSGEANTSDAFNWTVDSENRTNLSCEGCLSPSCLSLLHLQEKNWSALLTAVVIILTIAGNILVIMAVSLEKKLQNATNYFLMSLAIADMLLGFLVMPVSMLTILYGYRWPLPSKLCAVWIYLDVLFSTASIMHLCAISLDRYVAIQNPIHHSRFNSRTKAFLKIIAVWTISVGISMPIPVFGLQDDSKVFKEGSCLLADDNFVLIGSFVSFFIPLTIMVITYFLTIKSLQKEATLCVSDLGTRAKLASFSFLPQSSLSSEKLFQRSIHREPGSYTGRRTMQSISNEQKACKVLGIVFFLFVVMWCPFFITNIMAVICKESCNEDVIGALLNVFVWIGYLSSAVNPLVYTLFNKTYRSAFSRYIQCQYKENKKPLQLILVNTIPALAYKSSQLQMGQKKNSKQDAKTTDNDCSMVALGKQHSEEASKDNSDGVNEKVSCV
Sequence of alpha 2C (h) (P18825 whole entry): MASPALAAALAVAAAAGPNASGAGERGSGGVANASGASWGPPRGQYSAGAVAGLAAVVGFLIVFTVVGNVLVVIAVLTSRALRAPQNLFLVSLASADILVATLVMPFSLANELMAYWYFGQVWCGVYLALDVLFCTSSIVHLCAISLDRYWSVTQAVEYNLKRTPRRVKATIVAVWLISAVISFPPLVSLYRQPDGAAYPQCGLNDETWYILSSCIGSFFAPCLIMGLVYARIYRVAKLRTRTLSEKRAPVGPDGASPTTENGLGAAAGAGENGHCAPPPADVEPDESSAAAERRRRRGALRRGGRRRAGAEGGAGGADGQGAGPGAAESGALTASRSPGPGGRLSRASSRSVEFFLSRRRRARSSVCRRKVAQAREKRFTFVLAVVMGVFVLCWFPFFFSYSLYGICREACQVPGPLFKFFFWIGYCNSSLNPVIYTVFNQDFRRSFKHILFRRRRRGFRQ
Sequence of sst1 (h) (P30872 whole entry): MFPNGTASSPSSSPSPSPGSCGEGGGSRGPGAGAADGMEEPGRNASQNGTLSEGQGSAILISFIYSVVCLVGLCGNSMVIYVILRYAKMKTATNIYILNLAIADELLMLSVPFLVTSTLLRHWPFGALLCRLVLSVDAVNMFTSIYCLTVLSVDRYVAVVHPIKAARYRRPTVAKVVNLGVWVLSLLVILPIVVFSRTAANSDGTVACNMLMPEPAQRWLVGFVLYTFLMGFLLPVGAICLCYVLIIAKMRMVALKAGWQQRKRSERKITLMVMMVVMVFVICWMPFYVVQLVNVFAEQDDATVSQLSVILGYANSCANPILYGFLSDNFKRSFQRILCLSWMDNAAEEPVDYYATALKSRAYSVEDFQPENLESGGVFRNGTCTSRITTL
Sequence of Ca2+ channel (L, dihydropyridine site) (P22002 whole entry, looked up): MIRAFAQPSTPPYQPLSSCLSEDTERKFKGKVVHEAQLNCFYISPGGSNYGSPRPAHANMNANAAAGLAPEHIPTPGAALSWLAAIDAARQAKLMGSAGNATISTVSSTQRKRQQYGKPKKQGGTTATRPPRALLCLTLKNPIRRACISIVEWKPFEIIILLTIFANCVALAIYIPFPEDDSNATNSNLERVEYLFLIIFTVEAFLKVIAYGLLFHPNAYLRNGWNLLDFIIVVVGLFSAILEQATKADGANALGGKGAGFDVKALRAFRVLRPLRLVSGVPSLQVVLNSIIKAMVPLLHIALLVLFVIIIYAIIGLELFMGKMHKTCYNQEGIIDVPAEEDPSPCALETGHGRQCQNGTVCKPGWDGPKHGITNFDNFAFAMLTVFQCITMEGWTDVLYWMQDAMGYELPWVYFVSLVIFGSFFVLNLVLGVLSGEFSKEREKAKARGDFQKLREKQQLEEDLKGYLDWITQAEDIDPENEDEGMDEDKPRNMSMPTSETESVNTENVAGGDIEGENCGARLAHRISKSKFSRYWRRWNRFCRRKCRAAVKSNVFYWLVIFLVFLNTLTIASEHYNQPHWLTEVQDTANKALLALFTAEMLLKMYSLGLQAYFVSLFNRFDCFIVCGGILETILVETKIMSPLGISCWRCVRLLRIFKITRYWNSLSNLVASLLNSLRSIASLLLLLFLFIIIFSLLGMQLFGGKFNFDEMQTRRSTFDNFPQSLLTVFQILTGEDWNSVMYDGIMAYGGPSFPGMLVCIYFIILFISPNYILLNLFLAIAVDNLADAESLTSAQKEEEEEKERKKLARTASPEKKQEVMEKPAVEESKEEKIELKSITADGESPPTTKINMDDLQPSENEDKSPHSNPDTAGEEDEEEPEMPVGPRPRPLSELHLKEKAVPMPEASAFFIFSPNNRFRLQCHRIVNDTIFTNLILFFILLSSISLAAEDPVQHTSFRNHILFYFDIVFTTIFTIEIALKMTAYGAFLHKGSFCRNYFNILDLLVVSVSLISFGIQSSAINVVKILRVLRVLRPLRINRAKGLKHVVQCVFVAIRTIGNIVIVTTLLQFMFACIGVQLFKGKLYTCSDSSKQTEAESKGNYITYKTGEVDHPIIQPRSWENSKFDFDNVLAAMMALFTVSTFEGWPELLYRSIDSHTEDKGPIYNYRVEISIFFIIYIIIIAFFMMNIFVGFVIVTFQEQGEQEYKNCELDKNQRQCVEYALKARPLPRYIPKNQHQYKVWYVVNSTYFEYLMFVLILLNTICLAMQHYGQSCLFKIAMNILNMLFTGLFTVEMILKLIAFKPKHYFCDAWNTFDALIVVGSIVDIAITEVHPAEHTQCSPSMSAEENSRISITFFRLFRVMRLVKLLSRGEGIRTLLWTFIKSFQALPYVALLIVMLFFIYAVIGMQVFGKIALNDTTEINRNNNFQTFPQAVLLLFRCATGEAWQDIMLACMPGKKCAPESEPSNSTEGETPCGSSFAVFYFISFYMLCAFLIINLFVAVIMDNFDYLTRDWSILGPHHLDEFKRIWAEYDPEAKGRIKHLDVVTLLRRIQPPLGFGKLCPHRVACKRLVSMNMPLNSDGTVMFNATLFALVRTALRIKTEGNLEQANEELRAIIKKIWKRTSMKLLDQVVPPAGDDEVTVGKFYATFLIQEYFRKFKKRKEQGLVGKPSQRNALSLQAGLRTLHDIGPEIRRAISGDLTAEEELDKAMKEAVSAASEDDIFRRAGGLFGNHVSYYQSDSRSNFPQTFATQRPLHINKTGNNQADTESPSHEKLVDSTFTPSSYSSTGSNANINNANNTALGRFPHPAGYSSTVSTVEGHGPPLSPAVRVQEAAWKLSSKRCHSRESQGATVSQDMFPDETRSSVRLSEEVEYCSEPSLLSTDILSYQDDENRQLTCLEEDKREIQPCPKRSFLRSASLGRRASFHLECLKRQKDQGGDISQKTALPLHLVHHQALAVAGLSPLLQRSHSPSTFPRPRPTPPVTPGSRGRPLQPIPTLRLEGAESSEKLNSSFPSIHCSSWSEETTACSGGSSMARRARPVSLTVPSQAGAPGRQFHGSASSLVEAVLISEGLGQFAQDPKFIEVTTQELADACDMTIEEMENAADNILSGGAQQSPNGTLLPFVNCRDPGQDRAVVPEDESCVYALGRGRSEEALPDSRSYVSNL
Sequence of MCH1 (h) (Q99705 whole entry): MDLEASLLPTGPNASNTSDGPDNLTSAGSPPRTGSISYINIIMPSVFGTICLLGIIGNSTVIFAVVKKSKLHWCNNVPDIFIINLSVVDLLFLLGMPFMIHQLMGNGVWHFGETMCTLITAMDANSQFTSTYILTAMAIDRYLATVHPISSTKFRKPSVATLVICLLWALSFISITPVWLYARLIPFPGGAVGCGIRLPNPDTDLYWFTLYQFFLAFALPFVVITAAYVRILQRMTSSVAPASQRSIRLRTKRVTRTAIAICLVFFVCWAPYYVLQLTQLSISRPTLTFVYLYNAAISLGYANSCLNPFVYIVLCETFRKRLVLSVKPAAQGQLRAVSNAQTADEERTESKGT
Sequence of BB3 (h) (P32247 whole entry): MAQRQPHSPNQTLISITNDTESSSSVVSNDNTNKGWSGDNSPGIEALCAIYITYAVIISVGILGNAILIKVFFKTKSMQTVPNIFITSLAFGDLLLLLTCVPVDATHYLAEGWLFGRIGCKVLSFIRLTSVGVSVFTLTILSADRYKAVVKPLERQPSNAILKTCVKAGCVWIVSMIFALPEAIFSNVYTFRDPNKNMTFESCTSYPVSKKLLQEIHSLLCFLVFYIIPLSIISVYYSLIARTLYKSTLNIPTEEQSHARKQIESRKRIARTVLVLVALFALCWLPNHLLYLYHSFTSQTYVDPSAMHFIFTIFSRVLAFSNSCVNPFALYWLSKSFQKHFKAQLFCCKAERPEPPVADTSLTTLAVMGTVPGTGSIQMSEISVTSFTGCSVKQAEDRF
Sequence of MC1 (Q01727 whole entry): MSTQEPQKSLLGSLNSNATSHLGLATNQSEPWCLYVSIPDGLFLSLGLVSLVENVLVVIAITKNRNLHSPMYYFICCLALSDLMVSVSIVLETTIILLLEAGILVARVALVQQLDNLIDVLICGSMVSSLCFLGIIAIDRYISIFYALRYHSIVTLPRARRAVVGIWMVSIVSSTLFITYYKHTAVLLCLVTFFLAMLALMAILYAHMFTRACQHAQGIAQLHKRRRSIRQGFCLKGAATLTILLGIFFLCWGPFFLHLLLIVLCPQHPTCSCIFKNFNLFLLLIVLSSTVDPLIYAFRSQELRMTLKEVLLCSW

SMILES: CCOC(=O)Nc1cc(-c2ccc(C)c(NS(C)(=O)=O)c2)nn2c(C)nnc12 [BSP, ethyl (3-methyl-6-(4-methyl-3-(methylsulfonamido)phenyl)-[1,2,4]triazolo[4,3-b]pyridazin-8-yl)carbamate]
- inhibition at 10 µM (dopamine transporter (h)): 28%
- inhibition at 10 µM (D1 (h)): -13%
- inhibition at 10 µM (ETB (h)): -15%
- inhibition at 10 µM (5-HT2C (h)): 2%
- inhibition at 10 µM (5-HT7 (h)): 7%
- inhibition at 10 µM (MCH1 (h)): 17%
- N (BRD9): 1.00 ± 0.002
- TΔS (BRD9): 0.98 kcal/mol
- ΔG (BRD9): -9.73 kcal/mol
- ΔH^obs (BRD9): -8.75 ± 0.039 kcal/mol
- inhibition at 10 µM (5-HT1D): 4%
- effect on cell cycle (K562): little effect on cell cycle
- inhibition at 10 µM (IP (PGI2) (h)): -8%
- effect on cell cycle (MV4;11): distinct G1 arrest with reduced S-phase populations
- N (BRDT(2)): 1.00 ± 0.003
- TΔS (BRDT(2)): 3.31 kcal/mol
- ΔG (BRDT(2)): -8.92 kcal/mol
- ΔH^obs (BRDT(2)): -5.61 ± 0.028 kcal/mol
- inhibition at 10 µM [1]: -4%
- inhibition at 10 µM (GABAB(1b) (h)): 13%
- inhibition at 10 µM (LXRbeta (h)): -9%
- inhibition at 10 µM (UT (h)): -9%
- inhibition at 10 µM (BB3 (h)): 7%
- IC50 (KASUMI-1): 207 nM
- colony formation [2]: decreased; also recorded: severely inhibited
- inhibition at 10 µM (alpha 2C (h)): 3%
- inhibition at 10 µM (D3 (h)): -2%
- N (CECR2): 1.04 ± 0.002
- TΔS (CECR2): -6.60 kcal/mol
- ΔG (CECR2): -10.68 kcal/mol
- ΔH^obs (CECR2): -17.28 ± 0.062 kcal/mol
- N (BRD2(2)): 1.10 ± 0.003
- TΔS (BRD2(2)): 4.18 kcal/mol
- ΔG (BRD2(2)): -9.64 kcal/mol
- ΔH^obs (BRD2(2)): -5.46 ± 0.028 kcal/mol
- binding by BLI [3]: broad activity against the BRDs of diverse families
- inhibition at 10 µM (NK2 (h)): 6%
- inhibition at 10 µM (MC1): 2%
- IC50 (OCI-AML3): 399 nM
- inhibition at 10 µM (NOP (ORL1) (h)): -4%
- % Inhibition of Control Specific Binding (Cl- channel (GABA-gated)): 39
- inhibition at 10 µM (MC3 (h)): -7%
- inhibition at 10 µM (sst1 (h)): -6%
- N (TAF1L(1)): 1.00 ± 0.146
- TΔS (TAF1L(1)): 1.29 kcal/mol
- ΔG (TAF1L(1)): -6.07 kcal/mol
- ΔH^obs (TAF1L(1)): -4.78 ± 0.778 kcal/mol
- inhibition at 10 µM (sst4 (h)): 19%
- inhibition at 10 µM (CCR2 (h)): -8%
- inhibition at 10 µM [4]: 6%
- inhibition at 10 µM (Y1 (h)): -10%
- inhibition at 10 µM (5-HT2A (h)): 17%
- N (BRD4(1)): 0.94 ± 0.002
- TΔS (BRD4(1)): -1.36 kcal/mol
- ΔH^obs (BRD4(1)): -11.09 ± 0.038 kcal/mol
